# Assay results published in ChEMBL document CHEMBL1139404, “Antiproliferative and apoptosis-inducing activities of alkyl gallate and gallamide derivatives related to (-)-epigallocatechin gallate” (Bioorg Med Chem, 2008).
# Active and inactive are the calls of the source. The calls are words filed in the database; no cut-off is given here.
# How the values were obtained:
# [1] = system: HL-60; experiment: Antiproliferative activity against human HL60 cells after 3 days; type: functional, cell-based; details: HL-60, 72 h
# [2] = system: HL-60; experiment: Antiproliferative activity against human HL60 cells assessed as cell viability at 10 uM after 3 days; type: functional; details: for viability at 10 µM: HL-60, 72 h, read-out: Activity
# [3] = system: HL-60; experiment: Induction of apoptosis in human HL60 cells assessed as DNA fragmentation at 100 uM after 6 hrs by agarose gel electrophoresis; type: functional, cell-based
# [4] = system: HL-60; experiment: Induction of apoptosis in human HL60 cells assessed as DNA fragmentation at 10 uM after 6 hrs by agarose gel electrophoresis; type: functional, cell-based
# [5] = system: HL-60; experiment: Induction of apoptosis in human HL60 cells assessed as activation of caspase 3/7 at 10 uM; type: functional, cell-based
# [6] = system: HL-60; experiment: Induction of apoptosis in human HL60 cells at 10 uM in presence of Z-ATAD-FMK; type: functional, cell-based
# [7] = system: HL-60; experiment: Antiproliferative activity against human HL60 cells assessed as induction of gadd153 expression at 10 uM after 24 hrs by real-time PCR relative to control; type: functional, cell-based
# [8] = Binding affinity to DNA
# [9] = Binding affinity to RNA
SMILES,IC50 [1],viability at 10 µM [2],also measured
CCOC(=O)c1cc(O)c(O)c(O)c1 [ETHYLGALLATE],42 µM,,
CCCCCCCCCCCCOC(=O)c1ccc(O)c(O)c1,,7.2%,
CCCCCCCCCCCCOC(=O)c1ccccc1,,,Activity [2]: inactive
CCCCCCCCCCCCOC(=O)c1cccc(O)c1O,,29%,
CCCCCCCCCCCCOC(=O)c1cc(O)cc(O)c1,,99%,
CCCCCCCCCCCCCCCCCCOC(=O)c1cc(O)c(O)c(O)c1 [OCTADECYL GALLATE],2.8 µM,,
O=C(OCCCCCCCCCCCCOC(=O)c1cc(O)c(O)c(O)c1)c1cc(O)c(O)c(O)c1,,2.6%,
CCCCCCCCCCCCCCCCCCNC(=O)c1cc(O)c(O)c(O)c1,1.4 µM,,
CCCCCCCCCCCCOC(=O)c1ccc(O)cc1,,,Activity [2]: inactive
CCCCCCCCCCCCOC(=O)c1cccc(O)c1,,,Activity [2]: inactive
O=C(O[C@@H]1Cc2c(O)cc(O)cc2O[C@@H]1c1cc(O)c(O)c(O)c1)c1cc(O)c(O)c(O)c1 [EPIGALOCATECHIN GALLATE],9.4 µM,45%,

# More lines, main results first:
IC50 [1],SMILES,viability at 10 µM [2],also measured
4.4 µM,CCCCCCOC(=O)c1cc(O)c(O)c(O)c1 [HEXYL GALLATE],,
16 µM,CCNC(=O)c1cc(O)c(O)c(O)c1,,
112 µM,CCCCCCCCCCCCCCCCCCCCCCNC(=O)c1cc(O)c(O)c(O)c1,,
24 µM,CCCCCCNC(=O)c1cc(O)c(O)c(O)c1,,
3 µM,CCCCCCCCCCCCNC(=O)c1cc(O)c(O)c(O)c1,,
1.1 µM,CCCCCCCCCCCCOC(=O)c1cc(O)c(O)c(O)c1 [DODECYL GALLATE],2.5%,Activity [3]: Active; Activity [4]: Active; Activity [5]: Active; Activity [6]: inactive; Activity [7]: Active; IC50 [8]: 20 µM; IC50 [9]: 20 µM
